The test system of assay [1] is HEp-2. The assay is described as follows: MTT cytotoxicity, 72 h. The assay is classed as cell-based, human. The settings on record: Homo sapiens, HEp-2, 72 h of incubation. On the procedure:
(§1) The cytotoxicity assessment was performed against three human cancer cell lines in suspension (K562, HL-60 and MOLT-4) and four adhered (HEp-2, NCI-H292, HT-29 and MCF-7).
(§2) The cells were obtained from the Cell Bank of Rio de Janeiro and maintained in the Laboratory of Cell Culture of the Department of Antibiotics of the Federal University of Pernambuco. The lines K562 (myeloblastic leukaemia), HL-60 (promyelocytic leukemia) and MOLT-4 (lymphoblastic leukemia) were cultured in RPMI 1640 medium and the lines HEp-2 (larynx carcinoma), NCI-H292 (lung carcinoma), HT-29 (colon adenocarcinoma) and MCF-7 (breast adenocarcinoma) were cultured in DMEM medium, supplemented with 10% fetal bovine serum, 2 mM glutamine, 100 U/mL penicillin and 100 μg/mL streptomycin (Gibco™ Life Technologies), at 37 °C and 5% CO2.
(§3) The evaluation of the cytotoxicity of the compounds was performed by the method of 3-(4,5-dimethyl-2-thiazolyl)-2,5-diphenyl-2H-tetrazolium bromide (MTT) (Sigma Aldrich Co., St. Louis, MO, USA). To perform the assay the cells were seeded in 96-well plates at the following concentrations: HL-60 and K562 (0.3 × 10^6 cells/mL); MOLT-4 and PBMC (10^6 cells/mL); NCI-H292, HT-29, HEp-2 e MCF-7 (10^5 cells/mL). Briefly, the compounds previously dissolved in DMSO (dimethylsulfoxide, Vetec, São Paulo, Brazil), were diluted in medium and added to each well at the desired concentrations. For the calculation of the concentration that inhibits 50% of cell growth (IC50) the compounds were serially diluted to obtain the final concentrations between 0.19–25 μg/mL. Doxorubicin was used as the standard in the concentration range between (0.078–10 μg/mL). After 72 h of contact of the cells with the compounds, it was added to each well 25 μL of MTT solution (5 mg/mL). Plates were left for another 3 h in incubator at 37 °C and at the end of that period the supernatant was aspirated. To perform the reading, 100 μL of DMSO was added in each well for the dissolution of the formazan crystals. The amount of formazan was measured by reading the plate at 560 nm absorbance. The IC50 was calculated from the nonlinear regression in the Prisma 7.0 software (GraphPad, San Diego, CA, USA). Each sample was tested in triplicate in three independent experiments.

For assay [2], the system named is HL-60. The assay is described as follows: MTT cytotoxicity, 72 h. The assay is classed as cell-based, human. The settings on record: for selectivity index (SI = IC50 PBMC/ IC50 cancer cells): HL-60 versus PBMC; for IC50: Homo sapiens, HL-60, MTT, 72 h of incubation. On the procedure:
as §1, §2, §3

In assay [3] the test system is HT-29. In words: MTT cytotoxicity, 72 h. The assay is classed as cell-based, human. As to conditions: Homo sapiens, HT-29, 72 h of incubation. The method, then:
as §1, §2, §3

Assay [4] concerns K562. In words: MTT cytotoxicity, 72 h. Format: cell-based, human. The settings on record: Homo sapiens, K562, 72 h of incubation. The method, then:
as §1, §2, §3

Assay [5] concerns MCF-7. In words: MTT cytotoxicity, 72 h. The assay is classed as cell-based, human. As to conditions: Homo sapiens, MCF7, 72 h of incubation. The method, then: as §1, §2, §3
In assay [6] the test system is MOLT-4. The assay is described as follows: MTT cytotoxicity, 72 h. Format: cell-based, human. As to conditions: Homo sapiens, MOLT-4, 72 h of incubation. The method, then:
as §1, §2, §3

Assay [7] relates to NCI-H292. The assay is described as follows: MTT cytotoxicity, 72 h. As to conditions: Homo sapiens, NCI-H292, 72 h of incubation. The assay is classed as cell-based, human. The method, then:
as §1, §2, §3

In assay [8] the target is T1, CDK5/p25 (Homo sapiens, UniProt Q00535).
T1 construct: made in house; host or cells: bacteria
T1 sequence (Q00535 whole entry): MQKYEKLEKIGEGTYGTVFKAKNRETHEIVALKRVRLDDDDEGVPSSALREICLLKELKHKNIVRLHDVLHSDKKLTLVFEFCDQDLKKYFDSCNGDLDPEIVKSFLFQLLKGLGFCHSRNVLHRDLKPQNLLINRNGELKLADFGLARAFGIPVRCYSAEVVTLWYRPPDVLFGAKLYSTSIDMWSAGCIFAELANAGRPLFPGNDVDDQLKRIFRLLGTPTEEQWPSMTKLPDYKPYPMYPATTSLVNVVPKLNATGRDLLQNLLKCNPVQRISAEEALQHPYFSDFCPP
T1 sequence (Q15078 99-307 partner limits assumed): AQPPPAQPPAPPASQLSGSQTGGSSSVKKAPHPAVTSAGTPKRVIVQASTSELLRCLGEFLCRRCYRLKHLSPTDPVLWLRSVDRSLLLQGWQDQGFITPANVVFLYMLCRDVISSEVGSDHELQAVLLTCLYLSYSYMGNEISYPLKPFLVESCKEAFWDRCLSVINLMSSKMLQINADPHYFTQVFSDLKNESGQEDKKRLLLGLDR
The assay is described as follows: Kinase inhibition assay (ADP-Glo). The settings on record: 10 µM ATP. Format: biochemical. The method, then: HsCDK5/p25 (human, recombinant, expressed in bacteria) was assayed in buffer A, with 0.8 µg/µL of histone H1 as substrate.

Assay [9] concerns the target T2, HASPIN (Homo sapiens, UniProt Q8TF76).
T2 construct: kinase domain, amino acids 470 to 798; made in house; host or cells: bacteria
T2 sequence (Q8TF76 470-798): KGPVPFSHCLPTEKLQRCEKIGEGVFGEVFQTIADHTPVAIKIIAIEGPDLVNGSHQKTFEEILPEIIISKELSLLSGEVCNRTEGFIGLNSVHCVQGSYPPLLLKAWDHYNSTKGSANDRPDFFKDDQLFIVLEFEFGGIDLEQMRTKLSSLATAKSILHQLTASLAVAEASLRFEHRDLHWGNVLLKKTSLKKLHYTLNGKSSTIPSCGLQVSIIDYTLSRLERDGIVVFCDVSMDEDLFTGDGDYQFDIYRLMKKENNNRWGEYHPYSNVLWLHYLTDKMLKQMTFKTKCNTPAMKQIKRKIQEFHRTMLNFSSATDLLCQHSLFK
The assay is described as follows: Kinase inhibition assay (ADP-Glo). The assay is classed as biochemical. The settings on record: 10 µM ATP. The method, then: HsHASPIN (human, kinase domain, amino acids 470 to 798, recombinant, expressed in bacteria) was assayed in buffer A with 0.007 µg/µL of Histone H3 (1-21) peptide ([…]) as substrate;
Background: ADP-Glo turns the ADP formed in a reaction into a luminescent signal.

For assay [10], the target named is T3, PIM1 (Homo sapiens, UniProt P11309).
T3 construct: made in house; host or cells: bacteria
T3 sequence (P11309 whole entry): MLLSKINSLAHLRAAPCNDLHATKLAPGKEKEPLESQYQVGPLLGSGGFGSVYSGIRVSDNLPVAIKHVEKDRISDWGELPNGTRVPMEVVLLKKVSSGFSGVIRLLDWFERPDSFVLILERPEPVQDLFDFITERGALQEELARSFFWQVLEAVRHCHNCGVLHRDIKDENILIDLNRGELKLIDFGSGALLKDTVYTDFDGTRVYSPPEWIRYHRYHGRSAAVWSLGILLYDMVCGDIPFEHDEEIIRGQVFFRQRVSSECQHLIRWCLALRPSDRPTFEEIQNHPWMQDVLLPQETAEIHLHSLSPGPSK
The assay is described as follows: Kinase inhibition assay (ADP-Glo). Format: biochemical. As to conditions: 10 µM ATP. On the procedure:
HsPIM1 (human proto-oncogene, recombinant, expressed in bacteria) was assayed in buffer B with 0.8 µg/µL of histone H1 (Sigma #H5505) as substrate.

Assay [11] deals with T4, CLK1 (Mus musculus, UniProt P22518).
T4 construct: made in house; host or cells: bacteria
T4 sequence (P22518 whole entry): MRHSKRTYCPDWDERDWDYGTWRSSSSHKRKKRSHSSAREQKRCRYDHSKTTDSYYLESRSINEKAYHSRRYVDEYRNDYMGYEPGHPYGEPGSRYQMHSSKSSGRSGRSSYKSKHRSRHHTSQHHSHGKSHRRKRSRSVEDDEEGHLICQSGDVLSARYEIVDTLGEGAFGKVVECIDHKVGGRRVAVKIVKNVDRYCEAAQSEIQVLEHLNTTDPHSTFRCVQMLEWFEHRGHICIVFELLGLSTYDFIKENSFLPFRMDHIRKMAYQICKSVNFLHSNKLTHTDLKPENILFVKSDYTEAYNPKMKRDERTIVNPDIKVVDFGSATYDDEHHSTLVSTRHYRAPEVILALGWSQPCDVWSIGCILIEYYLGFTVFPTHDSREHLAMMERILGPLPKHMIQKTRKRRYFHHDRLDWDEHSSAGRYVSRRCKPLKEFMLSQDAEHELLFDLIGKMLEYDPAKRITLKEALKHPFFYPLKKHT
In words: Kinase inhibition assay (ADP-Glo). Format: biochemical. The settings on record: 10 µM ATP. On the procedure: MmCLK1 (from Mus musculus, recombinant, expressed in bacteria) was assayed in buffer A with 0.027μg/µL of the following peptide: GRSRSRSRSRSR as substrate.

Assay [12] addresses T5, DYRK1A (Rattus norvegicus, UniProt Q63470).
T5 construct: amino acids 1 to 499 including the kinase domain; made in house; host or cells: bacteria
The assay is described as follows: Kinase inhibition assay (ADP-Glo). Format: biochemical. As to conditions: 10 µM ATP. On the procedure: RnDYRK1A (Rattus norvegicus, amino acids 1 to 499 including the kinase domain, recombinant, expressed in bacteria, DNA vector kindly provided by Dr. W. Becker, Aachen, Germany) was assayed in buffer A with 0.033 μg/µL of the following peptide: KKISGRLSPIMTEQ as substrate.

The target in assay [13] is CDK9/CyclinT (Homo sapiens, UniProt P50750). In words: Kinase inhibition assay (ADP-Glo).
Sequence of CDK9/CyclinT (P50750 whole entry): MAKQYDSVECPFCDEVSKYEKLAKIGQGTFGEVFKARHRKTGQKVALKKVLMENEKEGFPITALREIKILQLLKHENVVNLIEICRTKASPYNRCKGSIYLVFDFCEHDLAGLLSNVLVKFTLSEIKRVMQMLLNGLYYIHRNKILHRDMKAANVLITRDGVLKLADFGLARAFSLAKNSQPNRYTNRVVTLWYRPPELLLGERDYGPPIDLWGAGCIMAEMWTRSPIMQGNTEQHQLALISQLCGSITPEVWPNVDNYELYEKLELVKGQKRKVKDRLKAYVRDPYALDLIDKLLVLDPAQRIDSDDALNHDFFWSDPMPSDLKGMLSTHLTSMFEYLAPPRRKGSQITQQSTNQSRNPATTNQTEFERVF
Sequence of CDK9/CyclinT (O60563 whole entry partner): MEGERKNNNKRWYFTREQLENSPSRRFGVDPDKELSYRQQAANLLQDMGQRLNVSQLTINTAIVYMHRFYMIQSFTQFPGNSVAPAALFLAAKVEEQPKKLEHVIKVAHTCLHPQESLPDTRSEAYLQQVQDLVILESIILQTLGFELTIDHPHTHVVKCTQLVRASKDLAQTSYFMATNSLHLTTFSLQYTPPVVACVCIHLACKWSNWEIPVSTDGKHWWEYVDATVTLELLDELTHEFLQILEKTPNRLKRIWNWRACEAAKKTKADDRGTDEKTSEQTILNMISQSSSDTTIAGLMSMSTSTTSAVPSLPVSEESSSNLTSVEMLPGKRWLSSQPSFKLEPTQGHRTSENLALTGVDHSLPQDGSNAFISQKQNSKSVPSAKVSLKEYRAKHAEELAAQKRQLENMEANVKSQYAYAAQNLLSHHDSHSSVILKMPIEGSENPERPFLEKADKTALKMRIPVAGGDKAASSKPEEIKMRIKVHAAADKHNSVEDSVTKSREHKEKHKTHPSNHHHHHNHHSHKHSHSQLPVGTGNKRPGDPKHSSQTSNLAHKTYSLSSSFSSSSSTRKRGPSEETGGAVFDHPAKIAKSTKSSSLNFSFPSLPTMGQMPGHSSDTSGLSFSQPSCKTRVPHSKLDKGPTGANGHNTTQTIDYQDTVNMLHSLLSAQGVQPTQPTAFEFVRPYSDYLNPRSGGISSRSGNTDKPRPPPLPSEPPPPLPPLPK
Experimental: The protein kinases studied were: CDK2/CyclinA, CDK5/p25, CDK9/CyclinT (cyclin-dependent kinases), HASPIN (haploid germ cell-specific nuclear protein kinase), PIM1 (PIM family kinase 1), CLK1 (cdc2-like kinase 1), DYRK1A (dual-specificity tyrosine phosphorylation regulated kinase), CK1δ/ε (casein kinase 1 isoforms), GSK3α/β (glycogen synthase kinase 3) and AURKB (aurora kinase B). Initially, all compounds were first tested at 10 μM. […] Compounds displaying more than 50% inhibition at 10 μM were next tested over a wide range of concentrations (usually 0.01–10 μM), and IC50 values were determined from the dose-response curves (Sigma-Plot).
Kinase activities were assayed in appropriate kinase buffer, with either protein or peptide as substrate in the presence of 10 µM ATP in a final volume of 6 µL using the ADP-Glo^TM assay kit (Promega, Madison, WI, USA, as described in Zegzouti et al. [66]). Controls were performed with appropriate dilutions of dimethylsulfoxide (solvent of the tested compounds).
The buffers used for kinase assays are the following: (A) 10 mM MgCl2, 1 mM EGTA, 1 mM DTT, 25 mM Tris-HCl pH 7.5, 50 µg/mL heparin; (B) 25 mM MOPS, pH 7.2, 12.5 mM -glycerolphosphate, 25 mM MgCl2, 5 mM EGTA, 2 mM EDTA, 0.25 mM DTT.

In the case of `NC(=O)N/N=C/c1c(O)ccc2ccccc12` [Compound 3c, 2-Hydroxynaphthaldehyde Semicarbazone], the IC50 in [1] amounted to 37.1 ± 1.5 µM; in assay [2], 13.1 ± 0.62 µM; in assay [3], 40.6 ± 1.02 µM; in assay [4], 52.3 ± 1.15 µM; in assay [5], 34 ± 1.06 µM; in assay [6] it was 41 ± 0.7 µM. The IC50 is 56.3 ± 3.05 µM in assay [7]; 0.35 µM in assay [8]; above 10 µM in [9]; 0.52 µM in [10]; 0.29 µM in assay [11]; 0.073 µM in assay [12]. Further, in [13], inhibition was half-maximal at 0.86 µM (IC50). Further, the “selectivity index (SI = IC50 PBMC/ IC50 cancer cells)” value in [2] is reported as 6.2.

`Cc1ccc(C=NNC(N)=O)cc1` [Compound 3g, 4-Methylbenzaldehyde Semicarbazone]: the IC50 in assay [1] was 24.3 ± 0.97 µM; in assay [2], 48.5 ± 1.63 µM; in assay [3], above 100 µM; in [4] it was 33.3 ± 0.71 µM; in [5], above 100 µM; in assay [6], 56.4 ± 0.97 µM. Moreover, the IC50 in assay [7] is above 100 µM; in assay [8], above 10 µM; in [9], above 10 µM; in assay [10], above 10 µM; in assay [11], above 10 µM; in [12] it was above 10 µM. Moreover, the IC50 in assay [13] is above 10 µM.

For `CCCCN(N=Cc1ccc([N+](=O)[O-])o1)C(N)=O` [Compound 4a, 5-Nitro-2-(N^2-n-butyl)furfuraldehyde Semicarbazone], the IC50 in [1] was found to be 34.4 ± 0.88 µM; in [2] it was 11.4 ± 0.27 µM; in assay [3] it was 36.3 ± 0.97 µM; in assay [4], 24.2 ± 1.15 µM; in assay [5] it was 33.6 ± 0.71 µM; in [6], 19.5 ± 0.62 µM. The IC50 in assay [7] is 37.9 ± 1.5 µM; in assay [8] it was above 10 µM; in assay [9], above 10 µM; in assay [10], above 10 µM; in assay [11] it was above 10 µM; in assay [12], above 10 µM. Further, in assay [13], the IC50 is above 10 µM. In addition, in [2], the “selectivity index (SI = IC50 PBMC/ IC50 cancer cells)” value came out at 4.5.

The IC50 is the concentration needed to halve the response being measured. Low values mean greater potency in that assay, high ones weaker potency in that assay.
